The results in this text go back to ChEMBL document CHEMBL5108020, “Design and synthesis of novel benzimidazole derivatives as potential Pseudomonas aeruginosa anti-biofilm agents inhibiting LasR: Evidence from comprehensive molecular dynamics simulation and in vitro investigation” (Eur J Med Chem, 2022).

Data set [1] addresses T1, Transcriptional activator protein LasR (Pseudomonas aeruginosa (strain ATCC 15692 / PAO1 / 1C / PRS 101 / LMG12228), UniProt P25084).
T1 sequence (P25084 whole entry): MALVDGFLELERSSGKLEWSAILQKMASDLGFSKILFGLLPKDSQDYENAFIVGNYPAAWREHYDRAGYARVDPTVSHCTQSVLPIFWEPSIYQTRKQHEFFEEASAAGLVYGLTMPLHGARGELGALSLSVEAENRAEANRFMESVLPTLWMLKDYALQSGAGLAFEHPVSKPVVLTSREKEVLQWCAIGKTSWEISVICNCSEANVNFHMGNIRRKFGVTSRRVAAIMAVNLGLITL
The data set is described as follows: Inhibition of Pseudomonas aeruginosa PAO1 LasR co-transfected with LVAgfp reporter assessed as inhibition of GFP production measured after 12 to 24 hrs by fluorescence based analysis.

The target of data set [2] is T2, HTH-type quorum-sensing regulator RhlR (Pseudomonas aeruginosa (strain ATCC 15692 / PAO1 / 1C / PRS 101 / LMG12228), UniProt P54292).
T2 sequence (P54292 whole entry): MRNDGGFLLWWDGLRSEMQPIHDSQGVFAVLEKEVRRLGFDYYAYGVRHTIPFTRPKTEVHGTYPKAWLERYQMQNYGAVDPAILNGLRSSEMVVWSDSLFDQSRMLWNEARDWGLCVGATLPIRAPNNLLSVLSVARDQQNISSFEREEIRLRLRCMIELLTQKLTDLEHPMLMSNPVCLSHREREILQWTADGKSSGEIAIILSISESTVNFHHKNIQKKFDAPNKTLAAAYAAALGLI
The data set is described as follows: Inhibition of Pseudomonas aeruginosa PAO1 RhlR co-transfected with LVAgfp reporter assessed as inhibition of GFP production measured after 12 to 24 hrs by fluorescence based analysis.

The nature of data set [3]: Selectivity index, ratio of IC50 for human HDFa cells to MIC for antibacterial activity against Pseudomonas aeruginosa. Type of data set: toxicity. Conditions: read-out: Selectivity Index.
Data set [4] in a line: Cytotoxicity against human HDFa cells assessed as reduction in cell viability incubated for 24 hrs by MTT assay. Format: toxicity, cell-based. A general note: Tetrazolium dyes change colour on reduction, which living cells bring about.
For data set [5], the system named is Pseudomonas aeruginosa. The data set is described as follows: Antibacterial activity against Pseudomonas aeruginosa ATCC 27853 assessed as zone of growth inhibition incubated for 24 hrs by agar diffusion method. Format: functional. Background: Agar diffusion results depend on both activity and mobility in agar.
The nature of data set [6]: Inhibition of quorum sensing system in Pseudomonas aeruginosa assessed as inhibition of rhamnolipid production at sub-MIC by spectrophotometric method.
The nature of data set [7]: Inhibition of quorum sensing system in Pseudomonas aeruginosa assessed as inhibition of biofilm production at sub-MIC incubated for 24 hrs by crystal violet staining based analysis.
The test system of data set [8] is Pseudomonas aeruginosa. Kind of data set: Antibacterial activity against Pseudomonas aeruginosa assessed as inhibition of bacterial growth incubated for 24 hrs by CLSI broth microdilution method. Type of data set: functional. The settings on record: for MIC: Pseudomonas aeruginosa.
Data set [9] in a line: Inhibition of quorum sensing system in Pseudomonas aeruginosa assessed as inhibition of pyocyanin production at sub-MIC by absorbance based analysis.
Data set [10] relates to Bacillus subtilis. The data set is described as follows: Antibacterial activity against Bacillus subtilis ATCC 6633 assessed as inhibition of bacterial growth incubated for 24 hrs by agar diffusion method. Type of data set: functional, organism-based.
Data set [11] in a line: Inhibition of quorum sensing system in Pseudomonas aeruginosa assessed as downregulation of rhlR gene expression at sub-MIC by fluorescence real time PCR analysis. Background: Quantitative PCR measures a nucleic acid by following its amplification.
Data set [12] is described as follows: Inhibition of quorum sensing system in Pseudomonas aeruginosa assessed as downregulation of lasR gene expression at sub-MIC by fluorescence real time PCR analysis.
Data set [13] deals with T3, Transcriptional activator protein LasR (Pseudomonas aeruginosa (strain ATCC 15692 / PAO1 / 1C / PRS 101 / LMG12228)) (UniProt P25084).
T3 sequence (whole entry): T1 sequence (P25084 whole entry)
Kind of data set: Inhibition of Pseudomonas aeruginosa MH602 LasR co-transfected with ASVgfp reporter assessed as inhibition of GFP production at 125 uM by fluorescence based analysis.

For data set [14], the target named is T3, Transcriptional activator protein LasR (Pseudomonas aeruginosa (strain ATCC 15692 / PAO1 / 1C / PRS 101 / LMG12228)). Kind of data set: Inhibition of Pseudomonas aeruginosa MH602 LasR co-transfected with ASVgfp reporter assessed as inhibition of GFP production at 250 uM by fluorescence based analysis.
The target is the same in data set [15]. Kind of data set: Inhibition of Pseudomonas aeruginosa MH602 LasR co-transfected with ASVgfp reporter assessed as inhibition of GFP production at 62.5 uM by fluorescence based analysis.
In data set [16] the test system is Staphylococcus aureus. Kind of data set: Antibacterial activity against Staphylococcus aureus ATCC 43300 assessed as inhibition of bacterial growth incubated for 24 hrs by agar diffusion method. Format: functional, organism-based.
Data set [17] deals with Candida albicans. Kind of data set: Antifungal activity against Candida albicans ATCC 60193 assessed as inhibition of fungal growth incubated for 48 hrs by agar diffusion method. Type of data set: functional, organism-based.
The test system of data set [18] is Escherichia coli. The data set is described as follows: Antibacterial activity against Escherichia coli ATCC 25922 assessed as inhibition of bacterial growth incubated for 24 hrs by agar diffusion method. Type of data set: functional, organism-based.
For data set [19], the system named is Klebsiella pneumoniae. Kind of data set: Antibacterial activity against Klebsiella pneumoniae ATCC 700603 assessed as inhibition of bacterial growth incubated for 24 hrs by agar diffusion method. Type of data set: functional, organism-based.
Data set [20] concerns the target T1, Transcriptional activator protein LasR. Kind of data set: Inhibition of Pseudomonas aeruginosa PAO-JP2 LasR co-transfected with LVAgfp reporter assessed as inhibition of GFP production by fluorescence based analysis.
For data set [21], the target named is T2, HTH-type quorum-sensing regulator RhlR. Kind of data set: Inhibition of Pseudomonas aeruginosa PAO1 RhlR.
Data set [22] concerns the target T1, Transcriptional activator protein LasR. The data set is described as follows: Inhibition of Pseudomonas aeruginosa PAO-JG21 LasR co-transfected with LVAgfp reporter assessed as inhibition of GFP production by fluorescence based analysis.
Data set [23] shares this target. Kind of data set: Inhibition of Pseudomonas aeruginosa PAO1 LasR.

pIC50: −log10 of the molar value. In brackets after ≈: the same amount, converted by molar mass. Activity calls are given as the source filed them. No cut-off for these calls is given here.

For the compound `Cc1cc2nc(N)[nH]c2cc1C`, the values for the negative-log IC50 (pIC50) in data set [1] and in [2] were 4.43 and 4.90, respectively.

`O=C(COc1ccc(-c2nc3cc(Cl)ccc3[nH]2)cc1)Nc1ccccc1`: the selectivity ratio in [3] was 3.63. Further, the IC50 (usually the point on the concentration scale where inhibition reaches its midpoint) at 24 h in data set [4] turned out to be 102 µg/mL (≈ 270 µM). Also, the “inhibition zone (IZ)” value in [5] worked out at 15 mm. Moreover, the results for the inhibition in data set [6], in [7] and in data set [9] were 20.7%, 53.1% and 35.5%, respectively. Besides, the SubMIC in data set [8] was 18.5 µM. The MIC (as a rule, the lowest concentration that inhibits growth of the organism) in data set [8] amounted to 74.4 µM (≈ 28.1 µg/mL).

For the compound `Cc1ccc2[nH]c(-c3ccc(OCC(=O)Nc4ccccc4[N+](=O)[O-])cc3)nc2c1`, the selectivity ratio in data set [3] amounted to 14.6. Also, the result in data set [10] was Active. The IC50 at 24 h in [4] was found to be 411 µg/mL (≈ 1020 µM). Also, the “inhibition zone (IZ)” value in data set [5] is on record as 14 mm. In addition, the inhibition (usually the relative decrease from the control value, in per cent) in data set [6] was found to be 42.3%; in [7], 64.9%; in [9] it was 60%. In addition, the SubMIC in [8] came to 17.4 µM. Further, the minimal inhibitory concentration (MIC) in data set [8] was found to be 69.9 µM (≈ 28.1 µg/mL).

Consider `Cc1ccccc1NC(=O)COc1ccc(-c2nc3ccccc3[nH]2)cc1`, for which the selectivity ratio in data set [3] worked out at 6.01. The result in data set [10] was Active. Further, the IC50 at 24 h in [4] stood at 338 µg/mL (≈ 946 µM). The “inhibition zone (IZ)” value in [5] is 16 mm. The inhibition stood at 51.8% in [6]; 16.3% in data set [11]; 68.9% in [7]; 26% in data set [12]; 68% in data set [9]. Further, in data set [8], the SubMIC stood at 39.1 µM. The minimal inhibitory concentration (MIC) in data set [8] turned out to be 157 µM (≈ 56.2 µg/mL).

With `O=C(Cn1cc(-c2ccc([N+](=O)[O-])cc2)nn1)Nc1nc2ccccc2[nH]1`, the inhibition stood at 67.1% in data set [13], 68.2% in data set [14] and 63.7% in data set [15].

In the case of `CN1CCN(c2ccc(-c3nc4ccccc4[nH]3)cc2)CC1`, the outcome in data set [16], in data set [17], in data set [18] and in data set [19] was Active. In [3], the selectivity ratio is 3.86. In data set [4], the half-inhibitory concentration (IC50) at 24 h is 217 µg/mL (≈ 742 µM). For the same compound, in data set [5], the “inhibition zone (IZ)” value is listed as 20 mm. Further, the inhibition came out at 54% in data set [6], 71.7% in data set [7], 61.7% in [12] and 68.7% in [9]. In data set [8], the SubMIC came to 48 µM. The minimum inhibitory concentration (MIC) in data set [8] came out at 193 µM (≈ 56.4 µg/mL).

`O=C(COc1ccc(-c2nc3cc(Cl)ccc3[nH]2)cc1)Nc1ccc(Cl)cc1`: in [5], the “inhibition zone (IZ)” value was determined as 17 mm. Besides, the inhibition in [6] turned out to be 3.7%; in [7], 31%; in data set [9], 13.4%. In addition, the result in [18] and in [19] was Active. Further, the SubMIC in data set [8] was found to be 16.9 µM. The MIC in data set [8] came to 68.2 µM (≈ 28.1 µg/mL).

In the case of `Nc1nc2ccccc2[nH]1`, the negative-log IC50 (pIC50) (as a rule, −log10 of the IC50, conventionally taken in molar units) in data set [20] was 5.64; in data set [21], 3.55; in data set [22], 5.85; in data set [23] it was 3.40.

For `CC[C@H]1OC(=O)[C@H](C)[C@@H](O[C@H]2C[C@@](C)(OC)[C@@H](O)[C@H](C)O2)[C@H](C)[C@@H](O[C@@H]2O[C@H](C)C[C@H](N(C)C)[C@H]2O)[C@](C)(O)C[C@@H](C)CN(C)[C@H](C)[C@@H](O)[C@]1(C)O` [AZITHROMYCIN], the inhibition in data set [6] was 55.2%; in [11], 41.5%; in data set [7] it was 52.5%; in [12], 40.8%; in [9] it was 65%. For the same compound, the SubMIC in data set [8] was found to be 20.1 µM. For the same compound, the MIC in data set [8] came out at 85.4 µM (≈ 64 µg/mL).

With `Cc1ccc(NC(=O)COc2ccc(-c3nc4cc(C)ccc4[nH]3)cc2)cc1`, in data set [5], the “inhibition zone (IZ)” value is reported as 16 mm. The inhibition in data set [6] was 37.8%; in data set [7] it was 64.9%; in data set [9], 60%. The result in [18] was Active. Further, in [8], the SubMIC worked out at 18.8 µM. Besides, the MIC in data set [8] was 57.7 µM (≈ 21.4 µg/mL).

`COc1ccc(NC(=O)COc2ccc(-c3nc4cc(C)ccc4[nH]3)cc2)cc1`: the result in data set [10] and in [18] was Active. Further, in data set [5], the “inhibition zone (IZ)” value turned out to be 15 mm. In addition, the results for the inhibition in data set [6], in data set [7] and in data set [9] were 12.6%, 36.7% and 29%, respectively. Moreover, the SubMIC in data set [8] stood at 9 µM. The MIC in data set [8] stood at 36.1 µM (≈ 14 µg/mL).

As to `COc1ccc(NC(=O)COc2ccc(-c3nc4ccccc4[nH]3)cc2)cc1`, the outcome in data set [16] was Active. For the same compound, in data set [5], the “inhibition zone (IZ)” value was 18 mm. The inhibition in [6] stood at 46.4%; in [7] it was 67.1%; in data set [9], 61.8%. Moreover, the SubMIC in [8] was 37.4 µM. For the same compound, the MIC in data set [8] stood at 151 µM (≈ 56.2 µg/mL).

On to `c1ccc2[nH]c(-c3ccc(N4CCCCC4)cc3)nc2c1`, for which, in data set [16], the outcome was Active. The “inhibition zone (IZ)” value in data set [5] turned out to be 19 mm. Also, the results for the inhibition in [6], in data set [7] and in [9] were 49.6%, 67.3% and 63.6%, respectively. In addition, the SubMIC in [8] was determined as 50.4 µM. In addition, the MIC in [8] was determined as 203 µM (≈ 56.3 µg/mL).
